Assay results from patent publication US9340590B2 (priority 2011, dated 2016).
pIC50: −log10 of the molar value. Where two headings read alike, the source gives them in different places. Positions of bridges follow the written chain, without caps; N, C: chain ends. Non-standard residues stand in square brackets, D forms with d. Residues, ends and D or L forms follow the SMILES beside them. Arg(Me2s) = CN=C(NC)NCCC[C@H](N)C(=O)O; 2Pal = N[C@@H](Cc1ccccn1)C(=O)O

Legend:
Assay in all cases: cell-based
[1] = molecular target: hNav1.3 (Homo sapiens, UniProt Q9NY46); conditions: IonWorks Quattro, Use; read-out: IWQ Use Nav1.3
[2] = molecular target: hNav1.5 (Homo sapiens, UniProt Q14524); conditions: for pIC50: IonWorks Quattro, Use, read-out: IWQ Use Nav1.5; for IC50: IWQ Use Nav1.5 (μM)
[3] = molecular target: hNav1.7 (Homo sapiens, UniProt Q15858); format: cell-based; conditions: read-out: IWQ Use Nav1.7
Sequence of hNav1.7 (Q15858 whole entry, looked up): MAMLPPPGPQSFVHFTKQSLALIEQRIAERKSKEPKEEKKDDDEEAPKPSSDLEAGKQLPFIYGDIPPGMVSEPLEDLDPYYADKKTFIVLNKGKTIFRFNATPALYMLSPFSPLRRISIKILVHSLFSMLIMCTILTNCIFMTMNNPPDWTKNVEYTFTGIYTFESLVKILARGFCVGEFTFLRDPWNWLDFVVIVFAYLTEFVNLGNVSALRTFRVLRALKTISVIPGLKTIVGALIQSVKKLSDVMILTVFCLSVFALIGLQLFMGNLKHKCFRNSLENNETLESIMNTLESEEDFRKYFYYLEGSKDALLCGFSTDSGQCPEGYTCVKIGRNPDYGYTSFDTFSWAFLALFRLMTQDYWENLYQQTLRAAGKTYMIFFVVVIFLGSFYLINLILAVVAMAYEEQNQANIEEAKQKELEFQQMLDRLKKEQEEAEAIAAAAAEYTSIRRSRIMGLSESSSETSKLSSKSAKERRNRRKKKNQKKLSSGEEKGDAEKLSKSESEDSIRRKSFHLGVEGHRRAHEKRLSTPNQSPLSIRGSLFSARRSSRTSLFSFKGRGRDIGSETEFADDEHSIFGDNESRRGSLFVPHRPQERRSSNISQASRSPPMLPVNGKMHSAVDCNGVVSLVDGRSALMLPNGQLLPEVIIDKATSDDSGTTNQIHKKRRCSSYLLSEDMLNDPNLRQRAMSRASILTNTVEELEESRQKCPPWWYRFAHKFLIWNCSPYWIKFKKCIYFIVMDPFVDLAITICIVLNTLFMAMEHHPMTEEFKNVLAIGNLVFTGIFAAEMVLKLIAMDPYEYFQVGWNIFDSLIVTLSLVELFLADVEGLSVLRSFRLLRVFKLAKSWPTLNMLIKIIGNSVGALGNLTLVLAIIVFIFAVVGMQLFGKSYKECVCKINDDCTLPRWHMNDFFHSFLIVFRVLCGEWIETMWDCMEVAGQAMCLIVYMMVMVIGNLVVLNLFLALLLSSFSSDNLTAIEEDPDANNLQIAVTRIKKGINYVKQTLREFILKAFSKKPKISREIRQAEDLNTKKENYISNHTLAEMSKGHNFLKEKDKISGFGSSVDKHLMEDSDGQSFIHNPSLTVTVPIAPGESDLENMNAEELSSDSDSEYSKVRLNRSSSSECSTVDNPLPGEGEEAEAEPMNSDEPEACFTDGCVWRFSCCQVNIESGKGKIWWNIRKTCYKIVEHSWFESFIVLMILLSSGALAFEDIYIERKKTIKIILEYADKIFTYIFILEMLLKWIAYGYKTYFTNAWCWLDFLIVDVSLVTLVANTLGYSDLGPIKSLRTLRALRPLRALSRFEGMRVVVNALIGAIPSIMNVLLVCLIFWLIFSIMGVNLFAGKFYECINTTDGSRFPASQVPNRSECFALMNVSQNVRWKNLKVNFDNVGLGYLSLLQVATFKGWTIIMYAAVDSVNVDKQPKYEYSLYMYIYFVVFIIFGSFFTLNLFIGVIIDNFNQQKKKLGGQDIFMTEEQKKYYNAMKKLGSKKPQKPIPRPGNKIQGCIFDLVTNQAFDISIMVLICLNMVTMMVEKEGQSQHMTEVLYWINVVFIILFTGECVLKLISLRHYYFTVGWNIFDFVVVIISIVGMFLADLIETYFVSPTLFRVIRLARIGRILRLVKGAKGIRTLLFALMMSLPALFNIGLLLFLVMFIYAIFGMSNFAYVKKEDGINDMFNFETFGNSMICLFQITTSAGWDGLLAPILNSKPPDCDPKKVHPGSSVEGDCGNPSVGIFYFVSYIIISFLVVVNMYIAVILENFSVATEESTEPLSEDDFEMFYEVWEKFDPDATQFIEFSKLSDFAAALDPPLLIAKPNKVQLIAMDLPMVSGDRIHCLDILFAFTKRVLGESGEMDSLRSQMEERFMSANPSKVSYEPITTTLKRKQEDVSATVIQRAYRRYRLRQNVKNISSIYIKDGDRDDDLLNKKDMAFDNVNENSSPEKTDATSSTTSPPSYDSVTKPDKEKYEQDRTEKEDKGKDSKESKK

Sequence of hNav1.5 (Q14524 whole entry, looked up): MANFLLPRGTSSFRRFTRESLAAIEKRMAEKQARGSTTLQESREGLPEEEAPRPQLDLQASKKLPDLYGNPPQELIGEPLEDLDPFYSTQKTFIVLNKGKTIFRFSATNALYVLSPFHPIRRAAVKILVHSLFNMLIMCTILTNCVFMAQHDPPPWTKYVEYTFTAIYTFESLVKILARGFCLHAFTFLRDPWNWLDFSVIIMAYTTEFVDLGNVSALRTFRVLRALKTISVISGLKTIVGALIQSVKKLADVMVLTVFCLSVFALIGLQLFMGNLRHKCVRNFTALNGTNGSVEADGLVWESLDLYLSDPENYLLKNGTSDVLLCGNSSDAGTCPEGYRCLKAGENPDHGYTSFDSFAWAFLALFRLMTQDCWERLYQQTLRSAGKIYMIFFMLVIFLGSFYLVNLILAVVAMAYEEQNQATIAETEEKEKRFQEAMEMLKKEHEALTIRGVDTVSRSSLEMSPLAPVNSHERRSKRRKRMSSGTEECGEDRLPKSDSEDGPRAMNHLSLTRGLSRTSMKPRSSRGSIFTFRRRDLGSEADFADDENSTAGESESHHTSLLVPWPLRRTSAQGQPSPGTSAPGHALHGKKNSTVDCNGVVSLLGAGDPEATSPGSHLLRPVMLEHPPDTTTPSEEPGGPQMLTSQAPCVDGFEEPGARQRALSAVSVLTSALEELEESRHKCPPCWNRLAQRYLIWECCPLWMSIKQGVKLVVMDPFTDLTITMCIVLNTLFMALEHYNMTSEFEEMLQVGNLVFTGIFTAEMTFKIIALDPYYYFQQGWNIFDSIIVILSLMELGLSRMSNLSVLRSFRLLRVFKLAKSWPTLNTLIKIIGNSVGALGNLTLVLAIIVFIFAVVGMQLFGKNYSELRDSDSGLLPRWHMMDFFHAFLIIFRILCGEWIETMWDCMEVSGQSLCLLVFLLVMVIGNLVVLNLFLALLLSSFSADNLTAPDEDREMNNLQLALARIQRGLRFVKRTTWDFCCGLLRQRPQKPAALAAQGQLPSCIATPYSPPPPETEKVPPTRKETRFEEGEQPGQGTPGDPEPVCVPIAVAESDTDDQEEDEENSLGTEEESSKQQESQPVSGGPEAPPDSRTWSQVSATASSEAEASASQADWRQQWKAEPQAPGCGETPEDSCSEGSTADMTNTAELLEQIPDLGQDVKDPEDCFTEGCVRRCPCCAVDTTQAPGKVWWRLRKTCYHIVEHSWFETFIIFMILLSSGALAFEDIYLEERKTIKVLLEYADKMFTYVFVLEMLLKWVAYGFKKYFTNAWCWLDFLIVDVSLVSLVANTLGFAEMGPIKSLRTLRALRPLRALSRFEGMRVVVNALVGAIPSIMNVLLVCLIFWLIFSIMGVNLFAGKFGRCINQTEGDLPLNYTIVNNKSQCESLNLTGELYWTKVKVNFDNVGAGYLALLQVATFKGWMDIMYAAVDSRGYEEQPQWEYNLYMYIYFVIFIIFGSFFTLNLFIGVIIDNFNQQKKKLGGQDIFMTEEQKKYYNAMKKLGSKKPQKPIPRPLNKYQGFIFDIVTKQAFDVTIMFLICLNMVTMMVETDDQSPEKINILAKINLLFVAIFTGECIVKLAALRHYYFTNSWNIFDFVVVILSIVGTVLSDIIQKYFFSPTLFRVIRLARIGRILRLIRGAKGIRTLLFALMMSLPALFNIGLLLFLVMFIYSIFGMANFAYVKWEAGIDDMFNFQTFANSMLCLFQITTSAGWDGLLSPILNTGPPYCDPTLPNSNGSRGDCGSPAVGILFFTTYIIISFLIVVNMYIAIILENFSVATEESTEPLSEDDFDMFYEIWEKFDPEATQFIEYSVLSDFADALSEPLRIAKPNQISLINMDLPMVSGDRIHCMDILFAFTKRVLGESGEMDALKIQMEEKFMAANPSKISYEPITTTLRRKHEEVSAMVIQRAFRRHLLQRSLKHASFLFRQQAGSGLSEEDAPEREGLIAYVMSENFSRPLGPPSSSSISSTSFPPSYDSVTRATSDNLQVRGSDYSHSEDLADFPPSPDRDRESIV

**Q.** What does the source list for `CSCC[C@@H]1NC(=O)[C@H](Cc2ccccc2)NC(=O)CNC(=O)[C@H](CC(C)C)NC(=O)[C@@H](NC(=O)[C@@H](N)CC(=O)O)CSSC[C@@H]2NC(=O)[C@@H]3CSSC[C@@H](C(=O)N[C@@H](CCCCN)C(=O)N[C@@H](Cc4ccc(O)cc4)C(=O)N[C@H](C(=O)N[C@@H](Cc4ccccc4)C(N)=O)C(C)C)NC(=O)[C@H](Cc4c[nH]c5ccccc45)NC(=O)[C@H](CCCCN)NC(=O)[C@H](Cc4c[nH]cn4)NC(=O)[C@H]([C@@H](C)O)NC(=O)[C@H](CCCNC(=N)N)NC(=O)[C@H](CO)NC(=O)[C@H](CSSC[C@H](NC(=O)[C@H](CCCCN)NC(=O)[C@H](CCCNC(=N)N)NC1=O)C(=O)N[C@@H](Cc1ccc(C(=O)O)cc1)C(=O)N1CCC[C@H]1C(=O)N[C@@H](CC(=O)O)C(=O)N[C@@H](CC(N)=O)C(=O)N[C@@H](CC(=O)O)C(=O)N[C@@H](CCCCN)C(=O)N3)NC(=O)[C@H](C(C)C)NC(=O)[C@H](CC(C)C)NC(=O)[C@H](CC(N)=O)NC(=O)[C@@H]1CCCN1C(=O)[C@H](CCCNC(=N)N)NC2=O` [compound 310]?
**A.** pIC50 [1]: 6.64; pIC50 [2]: 5.16; pIC50 ([3]; IonWorks Quattro, Use): 6.55

**Q.** How did the pIC50 [1] turn out when `CSCC[C@@H]1NC(=O)[C@H](Cc2ccccc2)NC(=O)CNC(=O)[C@H](CC(C)C)NC(=O)[C@@H](NC(=O)[C@@H](N)CC(=O)O)CSSC[C@@H]2NC(=O)[C@@H]3CSSC[C@@H](C(=O)N[C@@H](CCCCN)C(=O)N[C@@H](Cc4ccc(O)cc4)C(=O)N[C@H](C(=O)N[C@@H](Cc4ccccc4)C(N)=O)C(C)C)NC(=O)[C@H](Cc4c[nH]c5ccccc45)NC(=O)[C@H](CCCCN)NC(=O)[C@H](Cc4c[nH]cn4)NC(=O)[C@H]([C@@H](C)O)NC(=O)[C@H](CCCNC(=N)N)NC(=O)[C@H](CO)NC(=O)[C@H](CSSC[C@H](NC(=O)[C@H](CCCCN)NC(=O)[C@H](CCCNC(=N)N)NC1=O)C(=O)N[C@@H](Cc1ccccn1)C(=O)N1CCC[C@H]1C(=O)N[C@@H](CC(=O)O)C(=O)N[C@@H](CC(N)=O)C(=O)N[C@@H](CC(=O)O)C(=O)N[C@@H](CCCCN)C(=O)N3)NC(=O)[C@H](C(C)C)NC(=O)[C@H](CC(C)C)NC(=O)[C@H](CC(N)=O)NC(=O)[C@@H]1CCCN1C(=O)[C@H](CCCNC(=N)N)NC2=O` [compound 311] was run?
**A.** 7.40

**Q.** What about the pIC50 [2] of the same compound?
**A.** 5.05

**Q.** And the pIC50 ([3]; IonWorks Quattro, Use)?
**A.** 6.72

**Q.** `CC[C@H](C)[C@@H]1NC(=O)[C@@H]2CSSC[C@@H]3NC(=O)[C@H](C(C)C)NC(=O)[C@H](CC(C)C)NC(=O)[C@H](CC(N)=O)NC(=O)[C@@H]4CCCN4C(=O)[C@H](CCCNC(=N)N)NC(=O)[C@H](CSSC[C@H](NC(=O)[C@@H](N)CC(=O)O)C(=O)N[C@@H](CC(C)C)C(=O)NCC(=O)N[C@@H](Cc4ccccc4)C(=O)N[C@@H](CCSC)C(=O)N[C@@H](CCCNC(=N)N)C(=O)N[C@@H](CCCCN)C(=O)N2)NC(=O)[C@H](CSSC[C@@H](C(=O)N[C@@H](CCCCN)C(=O)N[C@@H](Cc2ccc(O)cc2)C(=O)N[C@H](C(=O)N[C@@H](Cc2ccccc2)C(N)=O)C(C)C)NC(=O)[C@H](Cc2c[nH]c4ccccc24)NC(=O)[C@H](CCCCN)NC(=O)[C@H](Cc2c[nH]cn2)NC(=O)[C@H]([C@@H](C)O)NC(=O)[C@H](CCCNC(=N)N)NC(=O)[C@H](CO)NC3=O)NC(=O)[C@H](CCCNC(=NC)NC)NC(=O)[C@H](CC(=O)O)NC(=O)[C@H](CC(N)=O)NC(=O)[C@H](CC(=O)O)NC(=O)[C@@H]2CCCN2C1=O` [compound 312] (H-DCLGFMRKCIPDND[Arg(Me2s)]CCRPNLVCSRTHKWCKYVF-NH2; disulfide 2-17, 9-23, 16-30) was tested. Which pIC50 [1] did it give?
**A.** 6.82

**Q.** What about the pIC50 [2] of the same compound?
**A.** 5.01

**Q.** What about the pIC50 ([3]; IonWorks Quattro, Use) of the same compound?
**A.** 6.85

**Q.** What does the source list for `CC[C@H](C)[C@@H]1NC(=O)[C@@H]2CSSC[C@@H]3NC(=O)[C@H](C(C)C)NC(=O)[C@H](CC(C)C)NC(=O)[C@H](CC(N)=O)NC(=O)[C@@H]4CCCN4C(=O)[C@H](CCCNC(=N)N)NC(=O)[C@H](CSSC[C@H](NC(=O)[C@@H](N)CC(=O)O)C(=O)N[C@@H](CC(C)C)C(=O)NCC(=O)N[C@@H](Cc4ccccc4)C(=O)N[C@@H](CCSC)C(=O)N[C@@H](CCCNC(=N)N)C(=O)N[C@@H](CCCCN)C(=O)N2)NC(=O)[C@H](CSSC[C@@H](C(=O)N[C@@H](CCCCN)C(=O)N[C@@H](Cc2ccc(O)cc2)C(=O)N[C@H](C(=O)N[C@@H](Cc2ccccc2)C(N)=O)C(C)C)NC(=O)[C@H](Cc2c[nH]c4ccccc24)NC(=O)[C@H](CCCCN)NC(=O)[C@H](Cc2c[nH]cn2)NC(=O)[C@H]([C@@H](C)O)NC(=O)[C@H](CCCNC(=N)N)NC(=O)[C@H](CO)NC3=O)NC(=O)[C@H](CCCCN(C)C)NC(=O)[C@H](CC(=O)O)NC(=O)[C@H](CC(N)=O)NC(=O)[C@H](CC(=O)O)NC(=O)[C@@H]2CCCN2C1=O` [compound 313]?
**A.** pIC50 [1]: 6.89; IC50 [2]: 10.1 µM; pIC50 ([3]; IonWorks Quattro, Use): 6.72

**Q.** With `CC[C@H](C)[C@@H]1NC(=O)[C@@H]2CSSC[C@@H]3NC(=O)[C@H](C(C)C)NC(=O)[C@H](CC(C)C)NC(=O)[C@H](CC(N)=O)NC(=O)[C@@H]4CCCN4C(=O)[C@H](CCCNC(=NC)NC)NC(=O)[C@H](CSSC[C@H](NC(=O)[C@@H](N)CC(=O)O)C(=O)N[C@@H](CC(C)C)C(=O)NCC(=O)N[C@@H](Cc4ccccc4)C(=O)N[C@@H](CCSC)C(=O)N[C@@H](CCCNC(=N)N)C(=O)N[C@@H](CCCCN)C(=O)N2)NC(=O)[C@H](CSSC[C@@H](C(=O)N[C@@H](CCCCN)C(=O)N[C@@H](Cc2ccc(O)cc2)C(=O)N[C@H](C(=O)N[C@@H](Cc2ccccc2)C(N)=O)C(C)C)NC(=O)[C@H](Cc2c[nH]c4ccccc24)NC(=O)[C@H](CCCCN)NC(=O)[C@H](Cc2c[nH]cn2)NC(=O)[C@H]([C@@H](C)O)NC(=O)[C@H](CCCNC(=N)N)NC(=O)[C@H](CO)NC3=O)NC(=O)[C@H](CCCCN)NC(=O)[C@H](CC(=O)O)NC(=O)[C@H](CC(N)=O)NC(=O)[C@H](CC(=O)O)NC(=O)[C@@H]2CCCN2C1=O` [compound 315] as the compound, how does the pIC50 [1] read?
**A.** 7.00

**Q.** What about the IC50 [2] of the same compound?
**A.** 10.5 µM

**Q.** And the pIC50 [3]?
**A.** 6.85

**Q.** `CC[C@H](C)[C@@H]1NC(=O)[C@@H]2CSSC[C@@H]3NC(=O)[C@H](C(C)C)NC(=O)[C@H](CC(C)C)NC(=O)[C@H](CC(N)=O)NC(=O)[C@@H]4CCCN4C(=O)[C@H](Cc4ccccn4)NC(=O)[C@H](CSSC[C@H](NC(=O)[C@@H](N)CC(=O)O)C(=O)N[C@@H](CC(C)C)C(=O)NCC(=O)N[C@@H](Cc4ccccc4)C(=O)N[C@@H](CCSC)C(=O)N[C@@H](CCCNC(=N)N)C(=O)N[C@@H](CCCCN)C(=O)N2)NC(=O)[C@H](CSSC[C@@H](C(=O)N[C@@H](CCCCN)C(=O)N[C@@H](Cc2ccc(O)cc2)C(=O)N[C@H](C(=O)N[C@@H](Cc2ccccc2)C(N)=O)C(C)C)NC(=O)[C@H](Cc2c[nH]c4ccccc24)NC(=O)[C@H](CCCCN)NC(=O)[C@H](Cc2cnc[nH]2)NC(=O)[C@H]([C@@H](C)O)NC(=O)[C@H](CCCNC(=N)N)NC(=O)[C@H](CO)NC3=O)NC(=O)[C@H](CCCCN)NC(=O)[C@H](CC(=O)O)NC(=O)[C@H](CC(N)=O)NC(=O)[C@H](CC(=O)O)NC(=O)[C@@H]2CCCN2C1=O` [compound 316] (H-DCLGFMRKCIPDNDKCC[2Pal]PNLVCSRTHKWCKYVF-NH2; disulfide 2-17, 9-23, 16-30) was tested. Which pIC50 [1] did it give?
**A.** 7.22

**Q.** What about the pIC50 [2] of the same compound?
**A.** 5.04

**Q.** What about the pIC50 ([3]; IonWorks Quattro, Use) of the same compound?
**A.** 6.72
